The values that follow come from patent US8802439B2, “Methods for enhancing infectivity of retroviruses” (priority 2009, dated 2014).

“Also recorded” adds a separate entry of the source.

One test deals with HCV. The test is described as follows: HCV infectivity titer of supernatants from persistently infected HUH-7 cells. The class given is cell-based. The following applies: PiB 16 μM and 8 μM, 1 hour pre-treatment plus 9 hours at 37° C. How it is done: Cells persistently infected with HCV were treated with vehicle (DMSO), an MTP inhibitor (BMS-200150) capable of inhibiting HCV secretion, or with two doses of PiB (16 μM and 8 μM). After 1 hour of pre-treatment at 37° C., cells were washed with warm PBS and further incubated in normal medium containing the same drugs for an additional 9 hours at 37° C. Cell supernatants containing infectious HCV were collected for infectivity titer determination.
Infection assays for HCV: Persistently infected cells were treated with vehicle (DMSO), an MTP inhibitor (BMS-200150) capable of inhibiting HCV secretion, or with two doses of PiB (16 μM and 8 μM). After 1 hour of pre-treatment at 37° C., cells were washed with warm PBS and further incubated in normal medium containing the same inhibitors for an additional 9 hours at 37° C. Cell supernatants containing infectious HCV were collected for infectivity titer determination. […] Note that Pin1 is able to block HIV-1 in the HUH-7 cell line used to propagate HCV.
Persistently infected HUH-7 cells were treated with solvent DMSO (circles), or increasing concentrations of PiB (squares). After 1 hour of pre-treatment cells were washed and further incubated in normal medium containing the same inhibitors for an additional 9 hours at 37° C. Cell supernatants containing infectious HCV were collected for infectivity titer determination.

The target in a further test is Pin1 PPIase (Homo sapiens, UniProt Q13526). The following applies: Uchida et al. 2003; cited from earlier work.
The test system of test [1] is other prolyl isomerases such as CypA or FKBP. The following applies: cited from earlier work.
In test [2] the test system is HIV-1. The test is described as follows: HIV-1 viral production in 293T producer cells, p24 ELISA of supernatants. The class given is cell-based. The following applies: 293T cells transfected with NL4.3; 2.0 μM juglone, 2.0 μM or 10.0 μM PiB. From the text: Plasmids: Laboratory-adapted provirus NL4.3, and the CypA-independent NL4.3 CAi2 were kindly provided by Akio Adachi (Department of Virology, Institute of Health Biosciences, The University of Tokushima Graduate School, JAPAN). Mutant R9G89V was a gift from P. Gallay (TSR1) as were NL4.3-GFP and SIV-GFP (originally Dana Gabuzda, Dana Farber Cancer Institute). NL4.3 A92E was kindly provided by W. Phares (Genetics Unit, Novartis Forschungsinstitut, Vienna, Austria). R9Δgp160 plasmid clone was kindly provided by C. Aiken (Vanderbilt Medical Center). VSV-G (CMV-VSV-G) was kindly provided by D. Trono (École Polytechnique Fédérale de Lausanne). Both bMLV-GFP and nMLV-GFP in the form of pCIG3-N, pCIG3-B as well as pCNCG were kindly provided by J. Stoye (National Institute for Medical Research, UK). Isomerase mutant Pin1 (pFLAG-Pin1R68,69A) and WW-domain mutant Pin1 (pFLAG-Pin1 W34A) were constructed by site-directed mutagenesis. Pseudotyping experiments were performed using DNA constructs encoding the VSV-G generously provided by D. Trono. Human Pin1 was cloned into pFLAG (Sigma-Aldrich) making pFLAG-Pin1. Viruses were produced by transfection of 293T cells using either GeneJuice (Novagen) or calcium phosphate. […] All viruses were harvested 24-48 hours post-transfection and filtered (0.2-μM filter, Steriflip Millipore). […]

In test [3] the test system is HIV-1. The test is described as follows: Single-round infectivity on TZM-bl cells of HIV-1 produced in Pin1-inhibited 293T cells (Galacton-Star galactosidase assay). The format is cell-based. The source says: Viral inocula from transfections above were normalized to equal virion particle number via p24 ELISA and used to infect target CD4^+ HeLa cells (1×10^5 TZM-bl). Infectivity was scored using the Galacton-Star enzymatic galactosidase activity assay, and infectivity quantified by relative […] units (R.F.U).
Plasmids: Laboratory-adapted provirus NL4.3, and the CypA-independent NL4.3 CAi2 were kindly provided by Akio Adachi (Department of Virology, Institute of Health Biosciences, The University of Tokushima Graduate School, JAPAN). Mutant R9G89V was a gift from P. Gallay (TSR1) as were NL4.3-GFP and SIV-GFP (originally Dana Gabuzda, Dana Farber Cancer Institute). NL4.3 A92E was kindly provided by W. Phares (Genetics Unit, Novartis Forschungsinstitut, Vienna, Austria). R9Δgp160 plasmid clone was kindly provided by C. Aiken (Vanderbilt Medical Center). VSV-G (CMV-VSV-G) was kindly provided by D. Trono (École Polytechnique Fédérale de Lausanne). Both bMLV-GFP and nMLV-GFP in the form of pCIG3-N, pCIG3-B as well as pCNCG were kindly provided by J. Stoye (National Institute for Medical Research, UK). Isomerase mutant Pin1 (pFLAG-Pin1R68,69A) and WW-domain mutant Pin1 (pFLAG-Pin1 W34A) were constructed by site-directed mutagenesis. Pseudotyping experiments were performed using DNA constructs encoding the VSV-G generously provided by D. Trono. Human Pin1 was cloned into pFLAG (Sigma-Aldrich) making pFLAG-Pin1. Viruses were produced by transfection of 293T cells using either GeneJuice (Novagen) or calcium phosphate. […] All viruses were harvested 24-48 hours post-transfection and filtered (0.2-μM filter, Steriflip Millipore). HIV-1 viruses were normalized by p24 ELISA (Alliance HIV-1 p24 Antigen ELISA Kit, Perkin Elmer), and/or were normalized via the EnzChek® Reverse Transcriptase Assay Kit (E-22064) (Molecular Probes).
Infection assays for retrovirus: Single-round infections: CD4^+ TZM-bl 100,000 cells/well/mL were seeded onto 24-well plates 24 hours prior to infection. These cells were infected in quadruplicate to 24-well plates. Infectivity was scored using an enzymatic galactosidase activity assay. Specifically, infected TZM-bl cells were washed and lysed, and 20 μl of lysate was transferred to a 96-well plate for detecting β-galactosidase activity. 100 μl of reaction buffer Galacton-Star substrate (Applied Biosystems, Bedford, Mass.), diluted 1:50, was added to 20 μl of lysate, and the light emission was measured over 1 second in a microplate luminometer after 30 minutes incubation. For human PBMC infections, cells were exposed to 10 ng of wild-type virus for 6 hours, washed, and split into two flasks: one with 10 μM PiB added on day 0 and 3, and one without PiB. Replication was monitored by p24 ELISA. For measuring infectivity of GFP-virus, 50,000 TZMb1, sMAGI, OMK, Vero, BSC-1 and CV-1 cells/well/mL were seeded onto 6-well plates respectively 24 hours prior to infection. Viruses were used to infect in duplicate wells, incubated for 48 hours, washed with PBS, trypsinized, fixed in 1% formaldehyde and subsequently analyzed by fluorescence-activated cell sorting (FACS) for percentage cells infected.
To examine a potential role for Pin1 in HIV-1 replication we used two inhibitors of Pin1: juglone and PiB. […] 293T cells were transfected with a proviral construct encoding wild-type HIV-1 in the presence or absence of PiB or juglone.

For another test, the target named is E. coli PPIase, parvulin (Escherichia coli, UniProt P0A9L5). The following applies: covalent modification of two cysteine residues, slow process; cited from earlier work.
E. coli PPIase, parvulin, sequence (P0A9L5 whole entry): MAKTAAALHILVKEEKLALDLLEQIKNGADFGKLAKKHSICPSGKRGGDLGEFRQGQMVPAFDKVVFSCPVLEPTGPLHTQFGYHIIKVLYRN

Pin1 PPIase, sequence (Q13526 whole entry): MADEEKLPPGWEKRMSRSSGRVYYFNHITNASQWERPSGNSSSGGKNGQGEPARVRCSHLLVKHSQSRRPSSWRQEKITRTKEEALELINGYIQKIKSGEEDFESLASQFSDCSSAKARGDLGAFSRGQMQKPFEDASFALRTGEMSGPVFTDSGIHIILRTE

For the compound `O=C1c2ccccc2CN1C1CCN(CCC(c2ccccc2)c2ccccc2)CC1` [BMS-200150], in the test with HCV, the “infectious HCV in cell supernatants (infectivity titer)” value was “virtual absence of particles”.

Turning to `CN1C(=O)c2ccc3c4c(ccc(c24)C1=O)C(=O)N(C)C3=O` [PiA, 2,7-dimethylbenzo[lmn][3,8]phenanthroline-1,3,6,8 (2H,7H)-tetrone], the “inhibition of the PPIase activity of Pin1” value at Pin1 PPIase was “potently inhibit”. As to `CCOC(=O)CN1C(=O)c2ccc3c4ccc5c6c(ccc(c7ccc(c2c37)C1=O)c64)C(=O)N(CC(=O)OCC)C5=O` [PiJ, diethyl-1,3,8,10-tetrahydro-1,3,8,10-tetraoxoanthra[2,1,9-def:6,5,10-d′e′f′]diisoquinoline-2,9-diacetate], the “inhibition of the PPIase activity of Pin1” value at Pin1 PPIase was “potently inhibit”. Take `O=C1C=CC(=O)c2c(O)cccc21` [juglone, 5-hydroxy-1,4-naphthoquinone]: the “inhibition of other PPIase families (CypA, FKBP)” value in test [1] is recorded as “do not inhibit; also recorded: not affected”. The “viral production (HIV-1 capsid in viral supernatants by p24 ELISA)” value in the test on HIV-1 [2] is listed as “Neither inhibitor influences viral production; also recorded: do not alter viral production”. In addition, in the test with HIV-1 [3], the boost of infectivity is reported as 2 fold. Further, the “inactivation of E. coli parvulin” value at E. coli PPIase, parvulin was “inactivates”.
